Laboratory results published in patent publication US12220421B2, “Inhibitors of C. difficile spore germination” (THE BOARDS OF REGENTS OF THE NEVADA SYSTEM OF HIGHER …, priority 2021, dated 2025).
Where two headings read alike, the source gives them in different places.

Tested on: C. difficile R20291 spores
Experiment: C. difficile spore germination assay (optical density, OD580)
[1] = Clostridioides difficile, R20291SPORES, read-out: % Germination, Table 2, compound 125 μM, 6 mM taurocholate, 12 mM glycine, ± standard deviation
[2] = Clostridioides difficile, R20291SPORES, Table 2, 6 mM taurocholate, 12 mM glycine
[3] = Clostridioides difficile, R20291SPORES, read-out: % Germination (125 μM), Table 5, compound 125 μM, 6 mM taurocholate, 12 mM glycine, 100% indicates no inhibition
[4] = Clostridioides difficile, R20291SPORES, read-out: % Germination, Table 3, compound 125 μM, 6 mM taurocholate, 12 mM glycine, ± standard deviation
[5] = Table 4, compound 125 uM, 6 mM taurocholate, 12 mM glycine, ± standard deviation
[6] = Clostridioides difficile, R20291SPORES, Table 4, 6 mM taurocholate, 12 mM glycine
[7] = Clostridioides difficile, R20291SPORES, Table 5, 6 mM taurocholate, 12 mM glycine

## C[C@H](CCC(=O)N1CCc2cc(Br)ccc21)[C@H]1CC[C@H]2[C@@H]3[C@H](O)C[C@@H]4C[C@H](O)CC[C@]4(C)[C@H]3C[C@H](O)[C@]12C [Compound 6]
[1]
  activity at 125 µM: 90 ± 3%
Clostridioides difficile, R20291SPORES, read-out: IC50 against the R20291 strain, R20291 strain
  IC50: 0.4 µM

## C[C@H](CCC(=O)N1CCCc2ccccc21)[C@H]1CC[C@H]2[C@@H]3[C@H](O)C[C@@H]4C[C@H](O)CC[C@]4(C)[C@H]3C[C@H](O)[C@]12C [Compound 8]
[2]
  IC50: 22 ± 3 µM
[1]
  activity at 125 µM: 17 ± 3%

## C=CCN(CC=C)C(=O)CC[C@@H](C)[C@H]1CC[C@H]2[C@@H]3[C@H](O)C[C@@H]4C[C@H](O)CC[C@]4(C)[C@H]3C[C@H](O)[C@]12C [Compound 15]
[2]
  IC50: 8 ± 3 µM
[1]
  activity at 125 µM: 0.9 ± 0.2%

## C[C@H](CCC(=O)N(C)c1ccccc1)[C@H]1CC[C@H]2[C@@H]3[C@H](O)C[C@@H]4C[C@H](O)CC[C@]4(C)[C@H]3C[C@H](O)[C@]12C [Compound 14]
[2]
  IC50: 32 ± 5 µM
[1]
  activity at 125 µM: 31 ± 2%

## C[C@H](CCC(=O)Nc1cccc(F)c1)[C@H]1CC[C@H]2[C@@H]3[C@@H](O)C[C@]4(C)C[C@H](O)CC[C@]4(C)[C@H]3CC[C@]12C [Compound 67]
[3]
  activity at 125 µM: 100%

## COc1ccc2c(c1)CCN(C(=O)CC[C@@H](C)[C@H]1CC[C@H]3[C@@H]4[C@H](O)C[C@@H]5C[C@H](O)CC[C@]5(C)[C@H]4C[C@H](O)[C@]13C)C2 [Compound 12]
[1]
  activity at 125 µM: 100%

## Cc1ccc2c(c1)CCCN2C(=O)CC[C@@H](C)[C@H]1CC[C@H]2[C@@H]3[C@H](O)C[C@@H]4C[C@H](O)CC[C@]4(C)[C@H]3C[C@H](O)[C@]12C [Compound 9]
[1]
  activity at 125 µM: 100%

## C[C@H](CCC(=O)N1CCc2cc(Cl)ccc21)[C@H]1CC[C@H]2[C@@H]3[C@H](O)C[C@@H]4C[C@H](O)CC[C@]4(C)[C@H]3C[C@H](O)[C@]12C [Compound 5]
[1]
  activity at 125 µM: 70 ± 3%

## C[C@H](CCc1ncc2cccc(F)c2n1)[C@H]1CC[C@H]2[C@@H]3[C@H](O)C[C@@H]4C[C@H](O)CC[C@]4(C)[C@H]3C[C@H](O)[C@]12C [Compound 38]
Clostridioides difficile, R20291SPORES, Table 3, 6 mM taurocholate, 12 mM glycine
  IC50: 79 ± 23 µM
[4]
  activity at 125 µM: 7 ± 0.7%

## C[C@H](CCc1ncc2cc(Cl)ccc2n1)[C@H]1CC[C@H]2[C@@H]3[C@H](O)C[C@@H]4C[C@H](O)CC[C@]4(C)[C@H]3C[C@H](O)[C@]12C [Compound 34]
[4]
  activity at 125 µM: 59 ± 0.2%

## C[C@H](CCc1nc2ccccc2s1)[C@H]1CC[C@H]2[C@@H]3[C@H](O)C[C@@H]4C[C@H](O)CC[C@]4(C)[C@H]3C[C@H](O)[C@]12C [Compound 49]
[5]
  % Germination: 81 ± 2%

## C[C@H](CCc1ncc2ccc(Cl)cc2n1)[C@H]1CC[C@H]2[C@@H]3[C@H](O)C[C@@H]4C[C@H](O)CC[C@]4(C)[C@H]3C[C@H](O)[C@]12C [Compound 36]
[4]
  activity at 125 µM: 89 ± 10%

## C[C@H](CCc1nc2ccccc2o1)[C@H]1CC[C@H]2[C@@H]3[C@H](O)C[C@@H]4C[C@H](O)CC[C@]4(C)[C@H]3C[C@H](O)[C@]12C [Compound 50]
[6]
  IC50: 6 ± 3 µM
[5]
  % Germination: −4 ± 0.8%

## C[C@H](CCC(=O)Nc1ccccc1)[C@H]1CC[C@H]2[C@@H]3CC[C@@H]4C[C@H](O)CC[C@]4(C)[C@H]3C[C@H](O)[C@]12C [Compound 57]
[7]
  IC50: 1.3 ± 0.1 µM
[3]
  activity at 125 µM: 3 ± 0.2%

## C[C@H](CCC(=O)Nc1cccc(F)c1)[C@H]1CC[C@H]2[C@@H]3CC[C@@H]4C[C@H](O)CC[C@]4(C)[C@H]3C[C@H](O)[C@]12C [Compound 59]
[3]
  activity at 125 µM: 59 ± 5%

## Cc1ccc2c(c1)CCN2C(=O)CC[C@@H](C)[C@H]1CC[C@H]2[C@@H]3[C@H](O)C[C@@H]4C[C@H](O)CC[C@]4(C)[C@H]3C[C@H](O)[C@]12C [Compound 3]
[1]
  activity at 125 µM: 100%

## C[C@H](CCC(=O)Nc1cccc(F)c1)[C@H]1CC[C@H]2[C@@H]3CC[C@@H]4C[C@H](O)CC[C@]4(C)[C@H]3CC[C@]12C [Compound 63]
[3]
  activity at 125 µM: 100%

## C[C@H](CCC(=O)N1CCc2ccccc2C1)[C@H]1CC[C@H]2[C@@H]3[C@H](O)C[C@@H]4C[C@H](O)CC[C@]4(C)[C@H]3C[C@H](O)[C@]12C [Compound 11]
[1]
  activity at 125 µM: 78 ± 2%

## Cc1ccc(F)cc1NC(=O)CC[C@@H](C)[C@H]1CC[C@H]2[C@@H]3CC[C@@H]4C[C@H](O)CC[C@]4(C)[C@H]3CC[C@]12C [Compound 64]
[3]
  activity at 125 µM: 100%

## COc1ccccc1NC(=O)CC[C@@H](C)[C@H]1CC[C@H]2[C@@H]3CC[C@@H]4C[C@H](O)CC[C@]4(C)[C@H]3CC[C@]12C [Compound 62]
Table 5, compound 125 μM, 6 mM taurocholate, 12 mM glycine, 100% indicates no inhibition
  % Germination (125 μM): 100%

## Cc1ccc(F)cc1NC(=O)CC[C@@H](C)[C@H]1CC[C@H]2[C@@H]3CC[C@@H]4C[C@H](O)CC[C@]4(C)[C@H]3C[C@H](O)[C@]12C [Compound 60]
[3]
  activity at 125 µM: 65 ± 0.9%

## C[C@H](CCC(=O)N1CCc2cc(Br)ccc2C1)[C@H]1CC[C@H]2[C@@H]3[C@H](O)C[C@@H]4C[C@H](O)CC[C@]4(C)[C@H]3C[C@H](O)[C@]12C [Compound 13]
[1]
  activity at 125 µM: 100%

## COc1ccccc1NC(=O)CC[C@@H](C)[C@H]1CC[C@H]2[C@@H]3[C@H](O)C[C@@H]4C[C@H](O)CC[C@]4(C)[C@H]3CC[C@]12C [Compound 54]
[7]
  IC50: 6 ± 1 µM
[3]
  activity at 125 µM: 31 ± 2%

## C[C@H](CCc1nc2ccccc2[nH]1)[C@H]1CC[C@H]2[C@@H]3[C@H](O)C[C@@H]4C[C@H](O)CC[C@]4(C)[C@H]3C[C@H](O)[C@]12C [Compound 45]
Table 4, 6 mM taurocholate, 12 mM glycine
  IC50: 12 ± 7 µM
[5]
  % Germination: 18 ± 2%

## C[C@H](CCc1nc2ccccc2o1)[C@H]1CC[C@H]2[C@@H]3[C@H](O)C[C@@H]4C[C@H](O)CC[C@]4(C)[C@H]3C[C@H](O)[C@]12C [Compound 52]
[5]
  % Germination: 83 ± 8%

## C[C@H](CCc1nc2ccccc2o1)[C@H]1CC[C@H]2[C@@H]3[C@H](O)C[C@@H]4C[C@H](O)CC[C@]4(C)[C@H]3C[C@H](O)[C@]12C [Compound 51]
[5]
  % Germination: 80 ± 4%

## C[C@H](CCc1nc2ccccc2[nH]1)[C@H]1CC[C@H]2[C@@H]3[C@H](O)C[C@@H]4C[C@H](O)CC[C@]4(C)[C@H]3C[C@H](O)[C@]12C [Compound 46]
[6]
  IC50: 6 ± 1 µM
Clostridioides difficile, R20291SPORES, read-out: % Germination, Table 4, compound 125 uM, 6 mM taurocholate, 12 mM glycine, ± standard deviation
  activity at 125 µM: 23 ± 5%

## C[C@H](CCc1ncc2ccc(F)cc2n1)[C@H]1CC[C@H]2[C@@H]3[C@H](O)C[C@@H]4C[C@H](O)CC[C@]4(C)[C@H]3C[C@H](O)[C@]12C [Compound 35]
[4]
  activity at 125 µM: 57 ± 2%

## C[C@H](CCc1nc2ccccc2s1)[C@H]1CC[C@H]2[C@@H]3[C@H](O)C[C@@H]4C[C@H](O)CC[C@]4(C)[C@H]3C[C@H](O)[C@]12C [Compound 47]
[6]
  IC50: 6 ± 4 µM
[5]
  % Germination: −6 ± 0.05%
